Test results as given in ChEMBL document CHEMBL5678800 (Mol Cancer Ther, 2009).
Calls of active or inactive are those of the source. No cut-off for these calls is given here.

Legend:
GTL 16 cell line = experiment: Antiproliferative activity against human GTL 16 cell line assessed as inhibition of cell viability incubated for 72 hrs by 3H-thymidine incorporation assay; format: functional, cell-based
[1] = target: High affinity nerve growth factor receptor (Rattus norvegicus, UniProt P35739); experiment: Inhibition of TrkA autophosphorylation in rat CD8-TrkA cells by Western blotting analysis; format: cell-based
Sequence of High affinity nerve growth factor receptor (P35739 whole entry): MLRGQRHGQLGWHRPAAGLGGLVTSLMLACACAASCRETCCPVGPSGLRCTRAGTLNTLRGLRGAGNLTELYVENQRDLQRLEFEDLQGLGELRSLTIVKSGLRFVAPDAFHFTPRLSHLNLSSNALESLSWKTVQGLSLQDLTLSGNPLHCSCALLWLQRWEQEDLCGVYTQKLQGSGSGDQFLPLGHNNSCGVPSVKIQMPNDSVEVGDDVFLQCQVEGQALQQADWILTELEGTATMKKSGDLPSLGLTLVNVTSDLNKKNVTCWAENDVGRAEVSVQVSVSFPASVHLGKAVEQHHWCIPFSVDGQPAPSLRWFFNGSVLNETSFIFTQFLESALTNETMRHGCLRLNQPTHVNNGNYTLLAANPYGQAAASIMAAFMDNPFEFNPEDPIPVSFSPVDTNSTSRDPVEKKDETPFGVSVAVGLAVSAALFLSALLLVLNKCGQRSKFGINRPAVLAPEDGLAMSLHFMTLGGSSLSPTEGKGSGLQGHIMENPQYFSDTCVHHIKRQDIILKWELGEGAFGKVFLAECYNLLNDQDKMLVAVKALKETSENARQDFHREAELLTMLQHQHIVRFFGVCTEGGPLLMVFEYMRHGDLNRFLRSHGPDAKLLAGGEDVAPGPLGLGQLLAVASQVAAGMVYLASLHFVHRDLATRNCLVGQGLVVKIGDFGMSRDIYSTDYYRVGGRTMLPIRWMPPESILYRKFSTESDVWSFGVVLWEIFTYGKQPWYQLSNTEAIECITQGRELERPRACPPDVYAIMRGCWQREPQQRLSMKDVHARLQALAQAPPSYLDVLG

Rh41 [2] = experiment: Induction of cell cycle arrest in human Rh41 cells assessed as accumulation of cells at G2/M phase by measuring >4N DNA content at 10x IC50 incubated for 48 hrs by propidium iodide staining based flow cytometry analysis; format: functional
IGF-1R-Sal = experiment: In vivo inhibition of IGF-1R phosphorylation in mouse IGF-1R-Sal cells xenografted in nude mouse at 12.5 mg/kg, po administered for 30 mins by Western blotting analysis; format: functional, organism-based
Mus musculus [3] = experiment: Anti-diabetic activity against nude mouse xenografted with mouse IGF-1R-Sal cells assessed as increased serum glucose level at 3.125 mg/kg, po administered for 2 hrs by oral glucose tolerance test (Rvb= 97.40 +/- 5.0 mg/dl); format: functional
Mus musculus [4] = experiment: Anti-diabetic activity against nude mouse xenografted with mouse IGF-1R-Sal cells assessed as increased serum glucose level at 12.5 mg/kg, po administered for 2 hrs by oral glucose tolerance test (Rvb= 97.40 +/- 5.0 mg/dl); format: functional
Mus musculus [5] = experiment: Anti-diabetic activity against nude mouse xenografted with mouse IGF-1R-Sal cells assessed as increased serum glucose level at 25 mg/kg, po administered for 2 hrs by oral glucose tolerance test (Rvb= 97.40 +/- 5.0 mg/dl); format: functional
Mus musculus [6] = experiment: Anti-diabetic activity against nude mouse xenografted with mouse IGF-1R-Sal cells assessed as insulin level at 3.125 mg/kg, po administered for 2 hrs by ELISA analysis (Rvb= 0.39 +/- […]); format: functional
Mus musculus [7] = experiment: Anti-diabetic activity against nude mouse xenografted with mouse IGF-1R-Sal cells assessed as insulin level at 12.5 mg/kg, po administered for 2 hrs by ELISA analysis (Rvb= 0.39 +/- […]); format: functional
[8] = Plasma concentration in nude mouse xenografted with mouse IGF-1R-Sal cells at 3.125 mg/kg, po administered for 2 hrs by LC-MS/MS analysis; format: ADME, organism-based
[9] = Plasma concentration in nude mouse xenografted with mouse IGF-1R-Sal cells at 12.5 mg/kg, po administered for 2 hrs by LC-MS/MS analysis; format: ADME, organism-based
[10] = Antitumor activity against mouse IGF-1R-Sal cells xenografted in nude mouse assessed as tumor growth inhibition at 3.1 to 12.5 mg/kg, po administered for 4 days relative to control; format: functional; conditions: dose 3.1-12.5 mg/kg, time 4 day
COLO 205 = experiment: Antitumor activity against human COLO 205 cells xenografted in nude mouse assessed as tumor growth inhibition at 50 mg/kg, po administered for 23 days relative to control; format: functional; conditions: COLO 205, 552 h, time 23 day, read-out: TGI
JJN-3 = experiment: Antitumor activity against human JJN-3 cells xenografted in nude mouse assessed as tumor growth inhibition at 25 mg/kg, po administered for 14 days relative to control; format: functional; conditions: JJN-3, 336 h, time 14 day, read-out: TGI
Rh41 [11] = experiment: Antitumor activity against human Rh41 cells xenografted in nude mouse assessed as tumor growth inhibition at 3.1 to 25 mg/kg, po administered for 14 days relative to control; format: functional; conditions: dose 3.1-25 mg/kg, time 14 day
Rh41 [12] = experiment: Antitumor activity against human Rh41 cells xenografted in nude mouse assessed as tumor growth inhibition at 12 to 50 mg/kg, po administered for 21 days relative to control; format: functional; conditions: dose 12-50 mg/kg, time 21 day
GEO [13] = experiment: Antitumor activity against human GEO cells xenografted in nude mouse assessed as tumor growth inhibition at 12.5 mg/kg, po administered for 17 days relative to control; format: functional; conditions: 408 h, time 17 day, read-out: TGI
GEO [14] = experiment: Antitumor activity against human GEO cells xenografted in nude mouse assessed as tumor growth inhibition at 12.5 mg/kg, po administered for 3 days in presence of cetuximab at 0.25 mg/kg relative to control; format: functional; conditions: 72 h, time 3 day, read-out: TGI
GEO [15] = experiment: Antitumor activity against human GEO cells xenografted in nude mouse assessed as tumor growth inhibition at 12.5 mg/kg, po administered for 3 days in presence of cetuximab at 0.125 mg/kg relative to control; format: functional; conditions: 72 h, time 3 day, read-out: TGI
GEO [16] = experiment: Antitumor activity against human GEO cells xenografted in nude mouse assessed as tumor growth delay time at 12.5 mg/kg, po administered for 17 days relative to control; format: functional; conditions: time 17 day
GEO [17] = experiment: Antitumor activity against human GEO cells xenografted in nude mouse assessed as tumor growth delay time at 6.25 mg/kg, po administered for 17 days relative to control; format: functional; conditions: time 17 day
GEO [18] = experiment: Antitumor activity against human GEO cells xenografted in nude mouse assessed as tumor growth delay time at 6.25 mg/kg, po administered for 3 days in presence of cetuximab at 0.25 mg/kg relative to control; format: functional; conditions: time 3 day
GEO [19] = experiment: Antitumor activity against human GEO cells xenografted in nude mouse assessed as tumor growth delay time at 25 mg/kg, po administered for 3 days in presence of cetuximab at 0.125 mg/kg relative to control; format: functional; conditions: time 3 day
[20] = Toxicity in nude mouse xenografted with human GEO cells assessed as body weight loss at 25 mg/kg, po administered for 17 days; format: organism-based; conditions: in vivo, 408 h, time 17 day
[21] = Toxicity in nude mouse xenografted with human GEO cells assessed as body weight loss at 25 mg/kg, po administered for 3 days in presence of cetuximab at 0.25 mg/kg relative to control; format: organism-based; conditions: in vivo, 72 h, time 3 day
[22] = Toxicity in nude mouse xenografted with human GEO cells assessed as body weight loss at 12.5 mg/kg, po administered for 3 days in presence of cetuximab at 0.25 mg/kg relative to control; format: organism-based; conditions: in vivo, 72 h, time 3 day
[23] = Toxicity in nude mouse xenografted with human GEO cells assessed as body weight loss at 6.25 mg/kg, po administered for 3 days in presence of cetuximab at 0.25 mg/kg relative to control; format: organism-based; conditions: in vivo, 72 h, time 3 day
[24] = Toxicity in nude mouse xenografted with human GEO cells assessed as body weight loss at 25 mg/kg, po administered for 3 days in presence of cetuximab at 0.125 mg/kg relative to control; format: organism-based; conditions: in vivo, 72 h, time 3 day
[25] = Toxicity in nude mouse xenografted with human GEO cells assessed as mortality at 25 mg/kg, po administered for 17 days relative to control; format: organism-based; conditions: in vivo, time 17 day
[26] = Toxicity in nude mouse xenografted with human GEO cells assessed as mortality at 25 mg/kg, po administered for 3 days in presence of cetuximab at 0.25 mg/kg relative to control; format: organism-based; conditions: in vivo, time 3 day
[27] = Toxicity in nude mouse xenografted with human GEO cells assessed as mortality at 12.5 mg/kg, po administered for 3 days in presence of cetuximab at 0.25 mg/kg relative to control; format: organism-based; conditions: in vivo, time 3 day
[28] = Toxicity in nude mouse xenografted with human GEO cells assessed as mortality at 6.25 mg/kg, po administered for 3 days in presence of cetuximab at 0.25 mg/kg relative to control; format: organism-based; conditions: in vivo, time 3 day

C[C@@]1(C(=O)Nc2ccc(F)nc2)CCCN1c1nc(Nc2cc(C3CC3)n[nH]2)c2cccn2n1 [BMS-754807]
IC50 (GTL 16 cell line): 200 nM | IC50 [1]: 1020 nM | Activity (Rh41 [2]): Active | inhibition (IGF-1R-Sal): Active | Activity (Mus musculus [3]): 91 mg/dL | Activity (Mus musculus [4]): 89 mg/dL | Activity (Mus musculus [5]): 95 mg/dL | Activity (Mus musculus [6]): 2 ng/mL | Activity (Mus musculus [7]): 5.1 ng/mL | concentration at 2 h [8]: 7 nM | concentration at 2 h [9]: 29 nM | TGI [10]: 80% | inhibition in vivo at 50 mg/kg (COLO 205): 53% | inhibition in vivo at 25 mg/kg (JJN-3): 53% | TGI (Rh41 [11]): 65% | TGI (Rh41 [12]): 45% | inhibition in vivo at 12.5 mg/kg (GEO [13]): 38% | inhibition in vivo at 12.5 mg/kg (GEO [14]): 88% | inhibition in vivo at 12.5 mg/kg (GEO [15]): 86% | Time (GEO [16]): 4 days | Time (GEO [17]): 3 days | Time (GEO [18]): 23 days | Time (GEO [19]): 21 days | Activity [20]: -1.5 g | Activity [21]: 1.5 g | Activity [22]: 1.2 g | Activity [23]: 1.4 g | Activity [24]: 0.6 g | mortality at 408 h [25]: 0% | mortality at 72 h [26]: 0% | mortality at 72 h [27]: 0% | mortality at 72 h [28]: 0%
